Data reported in patent publication US5814627A, “3, 5-disubstituted and 3, 4, 5-trisubstituted 2-isoxazolines and isoxazoles, process for their preparation and their use as pharmaceuticals” (Hoechst Aktienegesellschaft, priority 1994, dated 1998).

Tests used:
[1] = test system: IL-1 release from mononuclear cells; test: Test 4: cytokine release from LPS-stimulated mononuclear cells, IL-1; format: cell-based; conditions: Homo sapiens; IL-1; 10 μM; read-out: Test 4 residual activity (IL-1 release), percent of control
Description: Test 4. Stimulation of the cytokine release
Isolation of mononuclear cells from human blood
10 ml of human blood, stabilized with 1 ml of 3.8% sodium citrate solution, were diluted with 10 ml of PM16 (Serva, Heidelberg) and underlaid with 15 ml of Lymphoprep (Dr. Molter GmbH, Heidelberg). The samples were centrifuged, at room temperature for 40 minutes, at 400×g (1600 rpm, Minifuge 2, Heraeus, Osterode). The mononuclear cells are visible as a white ring at the Lymphoprep/plasma interface. This ring was carefully removed with a syringe, diluted with an equal volume of PM16, and centrifuged for 10 minutes at 400×g. The sediment was washed with approximately 10 ml of RPMI1640 (+300 mg/l L-glutamine, Gibco, Eggenstein) (Wallis, 1986). After the cells had been resuspended in approximately 1 ml of RPMI1640 (+300 mg/l L-glutamine+25 mM HEPES+100 μg/ml streptomycin+100 μg/ml penicillin), the cell density was determined using a Coulter Counter JT (Coulter Diagnostics) and adjusted to 5*10^6 /ml. Typically, the cells are composed of 90% lymphocytes and 10% monocytes.
230 μl of mononuclear cells were incubated, at 37° C.; 5% CO2 for 20-22 hours (5 hours in the case of IL-6), with 10 μl of test substance (10 μM in DMSO/water, 1/10) and 10 μl of lipopolysaccharide (LPS; 500 μg dissolved in 1 ml of DMSO and diluted 1/10 with water prior to beginning the test; from Salmonella abortus equi, Sigma, Deisenhofen). The samples were cooled down to 0° C. in an ice bath and centrifuged in a Sigma centrifuge (2 minutes; 2000 rpm). Aliquots of the supernatant are measured with an ELISA (Biermann, Bad Nauheim). The abbreviation IL stands for interleukin and TNF for tumor necrosis factor alpha.
The values in the table show the concentration of the test substance which was employed in μM and, besides this, the residual activity measured in percent based on the control, which was set to be 100%. The interleukin is additionally indicated in test 4.

[2] = test system: adjuvant/arthritis model; test: Test 6: antiarthritic effect in the adjuvant/arthritis model; format: in vivo, rat (Wistar-Lewis); conditions: Rattus norvegicus, po, 408 h, 50 mg/kg orally, daily for 17 days; rat; read-out: Test 6 Paw volume (% inhibition)

| SMILES | activity at 10 µM [1] [%] | inhibition in vivo at 50 mg/kg [2] [%] |
| --- | --- | --- |
| CC(C)(C)c1cc(C2=NOC(c3ccccn3)C2)cc(C(C)(C)C)c1O (centres unmarked) [Example 9] | 73 | – |
| CC(O)c1cc(-c2cc(C(C)(C)C)c(O)c(C(C)(C)C)c2)no1 (centres unmarked) [Example 28] | – | 74 |
